Test results as given in ChEMBL document CHEMBL3507680, “University of Dundee, Gates Library screen for HepG2 cell viability”.

Test: Human HepG2 cell viability assay in 384 well format
Type: toxicity, cell-based
Parameters: dose 125 nL, time 70.5 hour; concentration not given beside the values
Details: HepG2 cells, read-out: Inhibition

SMILES	cytotoxicity at 70.5 h
O=c1cc(CN(CCO)C2CC2)nc2ccccn12	-3.82%
COc1ccc(CNc2nc(C3CC3)no2)cc1OC	-1.13%
CC(C)Cn1ccnc1CNC(=O)NC(C)(C)c1nccs1	19.7%
Cc1ccccc1C(C)NC(=O)CN1CCN(Cc2ccc(Cl)s2)CC1 (centres undefined)	17%
COc1ccccc1C(C)NC(=O)N1CCN(Cc2ccc(Br)s2)CC1 (centres undefined)	5.11%
COc1cc(OC)cc(-c2noc(CN)n2)c1	45.5%
Cc1cccc(NC(=O)CNC(=O)c2ccccc2F)c1	4.02%
CCOc1ccccc1NC(=O)NCc1ccoc1	-1.18%
CN(c1ncccc1C#N)C1CCN(CCc2ccccn2)CC1	13.7%
CNS(=O)(=O)c1cccc(S(=O)(=O)Nc2ncc(C)s2)c1	3.06%
NC(=O)CS(=O)(=O)Cc1ccc(OCc2ccc(F)cc2)cc1	-2.96%
CS(=O)(=O)Cc1ccc(OCc2ccc(F)cc2)cc1	19.8%
Cc1ccc(CC(=O)NCC(O)c2cccc(C(F)(F)F)c2)cn1 (centres undefined)	-0.0497%
O=C(CC1CCCCC1)N1CCC(O)(C(F)(F)F)C1 (centres undefined)	1.99%
CN(C)Cc1ccc(C(N)=O)cc1NC(=O)c1cccc(C#N)c1	-4.53%
CN(C)C(=O)Cc1ccc(NCc2nccn2C)cc1	-2.12%
O=C(NCc1cc(F)ccc1F)Nc1ccn(CC(F)F)n1	0.0811%
CCCn1cnc(S(=O)(=O)Nc2cccnc2-n2cccn2)c1	19.8%
COCCC(=O)N1CCC(NC(=O)c2cscc2C)CC1	6.09%
COCC(O)CN1CCC(NC(=O)c2cscc2C)CC1 (centres undefined)	3.56%
CCOc1ccc(NC(=O)c2cc(C)c(C)o2)cc1CO	26.7%
O=C(NCc1cccnc1)Nc1ccn(CC(F)F)n1	-3.22%
N#CCCN(Cc1ccco1)C(=O)COC1CCCCC1	21.5%
O=C1C(Sc2cnn[nH]2)CCCN1c1ccccc1F (centres undefined)	19%

SMILES	cytotoxicity at 70.5 h
O=C(NCc1cc(-c2ccccc2)no1)NCC1CCCO1 (centres undefined)	-0.266%
O=S(=O)(Cc1cc(-c2ccccc2)no1)CC1CCCO1 (centres undefined)	-8.25%
CCCN(Cc1cnn(C)c1)S(=O)(=O)c1ccc(F)c(C#N)c1	-7.37%
COCC(=O)N1CCN(Cn2nc(C)c(Br)c2C)CC1	-2.69%
CC(C)CN(CC(O)c1ccccc1)C(=O)Nc1nccs1 (centres undefined)	-6.61%
CCCN(Cc1cnn(C)c1)S(=O)(=O)c1cc(C)cc(F)c1	23.3%
CCOc1cccc(NC(=O)c2cc(C)on2)n1	-5.47%
Cc1cc(CSCc2csc(CS(C)(=O)=O)n2)no1	2%
CC(C)C(NCc1ccc(Cn2cncn2)cc1)c1ccccc1 (centres undefined)	-3.88%
CCOCCOc1ccc(S(=O)(=O)N2CCc3c(nc[nH]c3=O)C2)cc1	1.59%
CNC(=O)CN1CCC(CN(C)Cc2ccc(C)cc2C)CC1	27.9%
COC(=O)COc1c(F)cc(Br)cc1C(C)=O	-2.7%
Cc1ccc(S(N)(=O)=O)cc1C(=O)NC1CCCN(C)C1 (centres undefined)	1.47%
CN(CC(=O)NS(=O)(=O)c1cccs1)Cc1ccccc1	7.04%
CN(CC(=O)NS(=O)(=O)c1ccsc1)Cc1ccccc1	-6.37%
CN(C)C(=O)C1SCCc2ccccc21 (centres undefined)	-6.79%
Cc1cnc(CNC(=O)NC2CCCN(c3ccccc3F)C2)s1 (centres undefined)	-3.86%
Cc1cccc(C(=O)NCCNS(=O)(=O)c2cccs2)c1C	-5.88%
CCOCCCC(=O)NCc1ccnc(N2CCN(C)CC2)c1	4.8%
CCOc1ccc(-c2nc(CN(C)Cc3c(C)noc3C)cs2)cc1	11.3%
O=C(Cn1cc(C2CC2)nn1)N(Cc1ccco1)CC1CCCO1 (centres undefined)	10.2%
Cc1ccccc1C(NC(=O)NCC1(O)CCC1)C1CC1 (centres undefined)	5.34%
COc1cc(C(=O)NC(C)c2cccs2)cc2c1OCCO2 (centres undefined)	-9.64%
CNC(=O)c1cc(NC(=O)NC2CC2)ccc1F	-8.55%

SMILES	cytotoxicity at 70.5 h
Cc1cc(C)n(CC(C)NC(=O)NCc2c(C)cc(C)[nH]c2=O)n1 (centres undefined)	14.3%
CCC(NC(=O)c1cc(OC)c2c(c1)OCCO2)c1cccs1 (centres undefined)	-8.09%
COc1ccc2c(c1)NC(=O)C2OC(=O)CC(C)(C)C (centres undefined)	-9.54%
C=C(C)CN1CCC(NC(=O)Nc2ccc(F)c(C(=O)NC)c2)CC1	21.9%
CC(NC(=O)NCC(C)(C)C(N)=O)c1nc(-c2ccccc2)cs1 (centres undefined)	-5.18%
O=C(CCc1cccs1)Nc1ccnn1C1CCS(=O)(=O)C1 (centres undefined)	-1.32%
Cc1nc(C)c(CNC(=O)N2CCN(c3ccc(Cl)cn3)CC2)s1	-3.03%
Cc1cc(CNC(=O)N2CCN(c3ccc(Cl)cn3)CC2)c(C)o1	18.2%
Cc1nc(CNC(=O)N2CCN(c3ccc(Cl)cn3)CC2)sc1C	-3.28%
COc1c(Cl)cccc1NCc1csc(NC(C)=O)n1	3.58%
O=S(=O)(Cc1ccon1)N1CCN(c2ccncc2Cl)CC1	-11.7%
O=C(NCC1(O)CCC1)NC(c1cc(F)ccc1F)C1CC1 (centres undefined)	-6.17%
Cc1cc(N2CCCCC2)c(C#N)c(C)n1	-5.91%
CCOc1c(F)cccc1C(=O)N(CC)C(C)c1cccnc1 (centres undefined)	-6.68%
CN(CCCNC(=O)C1CCc2cn[nH]c2C1)c1ccc(F)cc1 (centres undefined)	16.9%
N#CC1(NC(=O)CN2CCc3c(ncn3C3CC3)C2)CCCC1	-2.71%
CC(C)Cc1noc(CC2CCS(=O)(=O)C2)n1 (centres undefined)	-6.88%
Cc1nnc(CN(C)CC(=O)N2CCCN(C3CCCC3)CC2)n1C	-6.96%
COC(=O)CSCc1noc(-c2ccc(C)cc2)n1	0.48%
CSCCC(NC(N)=O)C(=O)Nc1ccc(-n2cccn2)nc1 (centres undefined)	-7.37%
O=C(C1CCCCN1Cc1nccn1CC(F)(F)F)N1CCCC1 (centres undefined)	-2.02%
CN(Cc1ccc2c(c1)OCCO2)c1ncc(S(N)(=O)=O)s1	8.35%
CCN(Cc1ccc2c(c1)OCO2)c1ncc(S(N)(=O)=O)s1	1.59%
CC(C)c1nc2n(n1)CC(NCc1cc3ccccc3o1)CC2 (centres undefined)	12.7%

SMILES	cytotoxicity at 70.5 h
CN(C)c1ccc(C(=O)N(Cc2ccncc2)CC2CCCO2)nn1 (centres undefined)	-4.51%
O=C(Nc1cccnc1)NC1CCN(c2ccccc2OC(F)F)C1 (centres undefined)	-3.6%
CC(C)Cc1noc(CN(C)C2CCS(=O)(=O)C2)n1 (centres undefined)	-3.8%
COc1ccc(NC(=O)N2CCC(CSC)C2)cc1C (centres undefined)	2.45%
COC(CNC(=O)c1ccc(NC(C)=O)cc1)c1cccc(Cl)c1 (centres undefined)	-5.6%
NC(=O)C1CCCN1Cc1nccn1CC(F)(F)F (centres undefined)	10.6%
O=C(c1coc(-c2ccccc2)n1)N1CCS(=O)(=O)CC1	-3.26%
O=C(c1coc(-c2ccccc2)n1)N1CCCC1	3.66%
O=C(c1coc(-c2ccccc2)n1)N1CCCCC1	-10.3%
Cc1c(C(=O)NC2CCCOC2)nnn1-c1ccc(Cl)cc1F (centres undefined)	-0.806%
CN(Cc1nc(C(C)(C)C)no1)C1CCS(=O)(=O)C1 (centres undefined)	6.01%
CC(CNC(=O)c1cccnc1)Oc1ccc(F)cc1 (centres undefined)	8.38%
CC(NC(=O)NCCC1=CCCCC1)c1nncn1C (centres undefined)	35.8%
CC(C)(C)c1noc(CN2CCCc3cc(OC(F)(F)F)ccc32)n1	-2.73%
NC(=O)NC(=O)C(c1ccccc1)N1CCN(Cc2ccsc2)CC1 (centres undefined)	-7.31%
COc1ccc(OCCN(C)S(=O)(=O)c2cnn(C)c2)cc1	-6.09%
O=C(NCC1CCC1)c1ccnc(-n2ccnc2)c1	1.75%
O=C(NC1CCc2cc(Cl)ccc21)C1CCN(C(=O)C2CC2)CC1 (centres undefined)	-4.11%
Cc1cc(NCCC(=O)NC2CCCCC2)nc(-c2ccncc2)n1	24.9%
CN1CCOC(CNC(=O)C2(c3cccc(Cl)c3)CC2)C1 (centres undefined)	-5.99%
Cc1cccc(C2(C(=O)NCC3CN(C)CCO3)CC2)c1 (centres undefined)	2.72%
Cc1cc(NCCC(=O)NC(C)C)nc(-c2ccncc2)n1	3.03%
CN1CCOC(CNC(=O)C2(c3ccccc3)CCC2)C1 (centres undefined)	-5.1%
N#Cc1cccc(OCc2ccoc2C(=O)N2CCCCC2)c1	3.19%

SMILES	cytotoxicity at 70.5 h
Cc1cc(C)cc(C(=O)NCCS(=O)(=O)N2CCSCC2)c1	20.5%
COc1ccccc1OCC(=O)Nc1ncccc1C	-3.19%
COCCN(Cc1ccc(F)cc1Cl)C(=O)c1cc(C)no1	-1.27%
Cc1ccn(-c2ccccc2NCc2cccnc2)n1	5.47%
Cc1ccc(S(C)(=O)=O)cc1C(=O)N(C)Cc1ccco1	-3.41%
CCc1nc(C)c(C(=O)N2CCCC(c3noc(C)n3)C2)s1 (centres undefined)	-6.51%
CC(=O)N1CCN(C(=O)C(C)OCC(F)(F)F)CC1 (centres undefined)	33.2%
Cc1cccc(C)c1NC(=O)CN(C)C(C)c1nc(C(C)(C)C)no1 (centres undefined)	-88.9%
CCc1noc(C(C)N(C)CC(=O)Nc2ccc(Br)cc2C)n1 (centres undefined)	-96.5%
CC1(NC(=O)Cc2cccs2)CCS(=O)(=O)C1 (centres undefined)	-85.8%
Nc1cc(CCCNC(=O)NC2CCCC2)nn1-c1ccccc1	-102%
CC(NC(=O)C1=NN(C)C(=O)CC1)c1ccc(Cl)cc1 (centres undefined)	-110%
CC(NC(=O)C1=NN(C)C(=O)CC1)c1cccc(Cl)c1 (centres undefined)	-85.8%
CCSc1cc(C(=O)NCCC(=O)N(C)C)ccn1	-103%
Cc1ccc(C(=O)NCC(C)CN2CCCC2=O)c(=O)[nH]1 (centres undefined)	-113%
CCCc1cc(NC2CCc3nc(C)nn3C2)n2ncnc2n1 (centres undefined)	-112%
Cc1cnn(CC2CCCN2Cc2coc(-c3ccc(F)cc3)n2)c1 (centres undefined)	-115%
Cc1cc(NC2CCc3nc(C)nn3C2)n2ncnc2n1 (centres undefined)	-98.6%
O=C(NS(=O)(=O)c1ccccc1C(F)(F)F)c1cccc2c1OCCO2	-75.1%
Cc1ccc(C)c(S(=O)(=O)NC(=O)c2cccc3c2OCCO3)c1	-104%
COCCC(C)NC(=O)N1CCC(n2ccc(C(F)(F)F)n2)CC1 (centres undefined)	-98.6%
NC(C(=O)N1CCSc2ccccc2C1)c1ccccc1 (centres undefined)	2.56%
CC(C)(C)c1cc(=O)[nH]c(C2(N)CCCCC2)n1	-4.98%
